From US20250295795A1, “PEPTIDE” (priority 2021, published 2025)

What was measured:
HeLa cells [1] = experiment: Time course of uptake in Hela cells (continuous live cell confocal microscopy, ROI profile analysis); assay type: cell-based, human; settings: 1 μM; representative cells
Description: To better understand the mechanism by which tri-Tat A and tri-cTat B enter the cytosol and the nucleus, we investigated the uptake kinetics of the conjugates during the first 15 min after their addition to Hela cells using confocal live cell microscopy. Tri-Tat A (FIG. 3a) or tri-cTat B (FIG. 3b) (1 μM) were added to the cells and images acquired from 1 min to 15 min at 60 sec intervals. The two trimers show distinct uptake patters into Hela cells; to better understand the difference in uptake kinetics, we drew cross sectional profile plots through representative cells treated with tri-Tat A (FIG. 3c) and tri-cTat B (FIG. 3d). […] To investigate whether findings in individual cells also apply to larger populations, we extended the plot profile analysis by designating regions of interest (ROI) corresponding to plasma membrane, cytosol (excluding endosomes), nucleus, and nucleoli along the cross section, using information from brightfield images.^30 Average fluorescence intensities for each ROI, at each time point, in six cells per treatment group were calculated and plotted in FIGS. 3e-3h.
(§1) HeLa and CHO cells were cultured in DMEM supplemented with 10% FBS and penicillin/streptomycin. For post-wash experiments, Tat conjugate was added to the cells in serum free medium, cells incubated at 37° C. in an atmosphere of 5% CO2, culture medium removed at the desired time point, cells washed and transferred to the microscope for imaging. For time course or pre-wash experiments, cells were transferred to the microscope (incubation chamber at 37° C., 5% CO2) and Tat conjugate added directly to cell medium and cells imaged at desired time points. Co-delivery experiments were conducted by adding peptide trimer immediately followed by cargo into serum free medium. Samples were visualised using a Zeiss LSM 780 inverted confocal microscope fitted with a XLmultiS1 incubation chamber and Plan-Apochromat 63×/1.40 Oil DIC M27 objective. Images were analysed using ImageJ software. Digital adjustments and image processing are consistent throughout the manuscript, unless otherwise stated in the figure legend. Statistical analysis was carried out using GraphPad Prism 7 software and all data used for statistical analysis consists of measurements from distinct cells. Where applicable a parametric, unpaired, two-tailed t-test was used for statistical testing.

HeLa cells [2] = experiment: Live cell confocal microscopy: cellular uptake and intracellular distribution of Tat conjugates in HeLa cells; assay type: cell-based, human
Description: The cellular uptake and intracellular distribution of Tat-trimers and monomeric controls was investigated by performing live cell confocal microscopy of HeLa (human, cervical cancer) and CHO (Chinese hamster, […]). Following washing, images were acquired using a Zeiss 780 confocal microscope fitted with an incubation chamber (FIG. 2). In accordance with observations that free Tat in the cytosol readily enters the nucleus and strongly binds to nucleoli,^29 homogenous staining of cytoplasm and nucleoli were considered as indicative of cells having accumulated free conjugate, not confined to endosomes, for quantification purposes. […] The uptake and intracellular distribution of tri-Tat A is similar in live Hela and CHO cells (FIG. 2b,d,e).
Following washing, images were acquired using a Zeiss 780 confocal microscope fitted with an incubation chamber. In accordance with observations that free Tat in the cytosol readily enters the nucleus and strongly binds to nucleoli,^29 homogenous staining of cytoplasm and nucleoli were considered as indicative of cells having accumulated free conjugate, not confined to endosomes, for quantification purposes. The results were compared to tri-Tat A (8) and tri-cTat B (17).
as §1

## N=C(N)NCCC[C@@H]1NC(=O)[C@H](CCCNC(=N)N)NC(=O)[C@H](CCCNC(=N)N)NC(=O)[C@H](CCC(N)=O)NC(=O)[C@H](CCCNC(=N)N)NC(=O)[C@H](CCCNC(=N)N)NC(=O)[C@H](CCCCN)NC(=O)[C@H](CCCCN)NC(=O)[C@H](CCCNC(=N)N)NC(=O)[C@H](CCCCn2cc(COCC(COCc3cn(CCCCCCNC(=O)c4ccc5c(c4)C(=O)OC54c5ccc(N)c(S(=O)(=O)O)c5Oc5c4ccc(N)c5S(=O)(=O)O)nn3)(COCc3cn(CCCC[C@@H]4NC(=O)CC[C@@H](C(N)=O)NC(=O)[C@H](CCCNC(=N)N)NC(=O)[C@H](CCCNC(=N)N)NC(=O)[C@H](CCCNC(=N)N)NC(=O)[C@H](CCC(N)=O)NC(=O)[C@H](CCCNC(=N)N)NC(=O)[C@H](CCCNC(=N)N)NC(=O)[C@H](CCCCN)NC(=O)[C@H](CCCCN)NC(=O)[C@H](CCCNC(=N)N)NC4=O)nn3)COCc3cn(CCCC[C@@H]4NC(=O)CC[C@@H](C(N)=O)NC(=O)[C@H](CCCNC(=N)N)NC(=O)[C@H](CCCNC(=N)N)NC(=O)[C@H](CCCNC(=N)N)NC(=O)[C@H](CCC(N)=O)NC(=O)[C@H](CCCNC(=N)N)NC(=O)[C@H](CCCNC(=N)N)NC(=O)[C@H](CCCCN)NC(=O)[C@H](CCCCN)NC(=O)[C@H](CCCNC(=N)N)NC4=O)nn3)nn2)NC(=O)CC[C@@H](C(N)=O)NC1=O (stereo partly drawn) [tri-cTat B]
HeLa cells [1]
  association with plasma membrane (profile plots): little association with plasma membrane
HeLa cells [2]; 1 μM, 60 min, serum-free
  transduction efficacy in comparison (average fluorescence intensity per cell, percentage of transduced cells): more effective at cellular transduction in comparison to tri-cTat A
HeLa cells [2]; HeLa cells, 1 μM, 60 min, serum-free DMEM, post-wash
  cellular uptake and intracellular distribution: taken up into the cytosol and nucleoli
HeLa cells [2]; serum free, 1 μM
  number of transduced cells: 61%
HeLa cells [2]; serum supplemented medium, 1 μM, 60 min
  number of transduced cells: 42%
HeLa cells [2]; serum supplemented medium, 2 μM, 60 min
  number of transduced cells: 79%
